# Measured values published in patent US8778948B2, “Substituted phenylpiperazinyl aralkylalcohol derivatives, pharmaceutical compositions containing such derivatives and uses thereof” (priority 2008, dated 2014).
# Entries after “also recorded” stand apart in the source; their conditions may differ. Marks after values point to notes of the source that are not given here.
# Assays:
# [1] = test system: Salmonella typhimurium histidine auxotroph mutants TA97, TA98, TA100 and TA102; assay type: cell-based
# Protocol: Bacterial Reverse Mutation Test on I-20
# Bacterial reverse mutation test on compound I-20 was performed on Salmonella typhimurium histidine auxotroph mutants TA97, TA98, TA100 and TA102 (purchased from MolTox company) using conventional procedures of Ames test.
# Observation period: colony counting was done 48 hours after cultivation at 37° C.
# Drug solutions with different concentrations were prepared with double distilled water, and the doses were 5, 50, 500, 1000, 5000 μg/plate.
# Direct effect of the test drug in the absence of metabolic activity was determined by standard plate incorporation assay. The composition of the test top layer was: 2.0 ml top layer, 0.1 ml drug solution, 0.1 ml bacteria solution and 0.5 ml phosphate buffer.
# Pre-incubation was used in the determination of the drug's mutagenic effect in the presence of metabolic activity. The composition of the test top layer is: 2.0 ml top layer, 0.1 ml drug solution, 0.1 ml bacteria solution and 0.5 ml S9 mix.
# The resulting drug solution, bacterial solution and S9 mix were first incubated at 35° C. for 30 min while shaking, and then tested according to standard plate incorporation assay. Each dose was tested in three plates, each mutant was tested in the absence or presence of metabolic activity (−S9 or +S9) and repeated twice, the number of revertant colonies was calculated as x±SD.
# Results: the test included two parts, −S9 and +S9. […] Other doses had no bacteristatic effect to all strains, and the background growth was good.
# Kunming mice [2] = assay: Hot-plate test in mice; assay type: in vivo; settings: 1 h post dose, hot plate 55° C.
# Protocol: Kunming mice, SPF KM mice were purchased from […] SLAC LABORATORY ANIMAL CO. LTD and kept in normal environment.
# (§1) 2. Modes of Administration
# The compounds were dissolved in water for injection at a concentration of 4 mg/ml, 2 mg/ml and 1 mg/ml and were given subcutaneously to animals.
# (§2) Three different doses (10, 20, and 40 mg/kg) were administered to the test groups.
# Morphine was used as a positive control and hot plate test was used.
# 30-40 mice (half male and half female) weighing 18-23 g were used. First, each mouse was placed on a hot plat at 55° C. to determine basic pain threshold for 2-3 times. Those animals with basic pain threshold of 5-30 s were qualified, unqualified mice were not used. 30 qualified mice were divided into five groups, including negative control group, positive control group, low-dose group, medium-dose group and high-dose group:
# Mice in test groups received test sample solution (10 mg/kg, 20 mg/kg, 40 mg/kg) via subcutaneous injection in the neck. Positive control group received subcutaneous injection of morphine (2 mg/kg). One hour later, pain threshold values were determined for mice in each group as post-drug pain threshold. Percentage increase in pain threshold was calculated according to the following equation: […]
# [3] = Animal model study of compound I-20 (summary statements)
# [4] = target: opioid receptor subtype δ (Homo sapiens, UniProt P41143); assay: Competitive radioligand binding ([3H]Diprenorphine), opioid receptor subtype δ
# Chain of opioid receptor subtype δ (P41143 whole entry): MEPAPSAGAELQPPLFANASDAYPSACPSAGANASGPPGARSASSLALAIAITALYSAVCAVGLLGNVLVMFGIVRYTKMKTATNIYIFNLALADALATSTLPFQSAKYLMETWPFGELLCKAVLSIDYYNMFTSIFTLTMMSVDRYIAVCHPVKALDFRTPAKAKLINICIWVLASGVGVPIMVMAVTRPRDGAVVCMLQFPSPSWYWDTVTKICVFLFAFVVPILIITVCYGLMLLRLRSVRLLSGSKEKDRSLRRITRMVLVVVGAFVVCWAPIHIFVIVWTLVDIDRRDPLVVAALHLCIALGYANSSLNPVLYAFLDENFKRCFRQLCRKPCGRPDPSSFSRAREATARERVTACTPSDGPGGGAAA
# Protocol: (§3) Competitive Binding Between the Compounds and Opioid Receptor Subtypes μ, δ, κ
# (§4) The respective test compounds were added to the sample tube (final concentration of 10^−5M), incubated at 37° C. for 30 min and placed in ice bath to terminate the reaction. The reaction mixture was filtered through GF/C(Whatman) glass fiber filter by vacuum filtration on a Millipore sample collector. The filter was washed three times with 50 mM Tris-HCl (pH7.4), each with 4 ml; dried and transferred into a 0.5 ml Eppendorf tube, in which 0.5 ml lipophilic scintillation fluid was added. Radioactivity was detected by a LS6500 scintillation counter. Each concentration had three duplicate test tubes and each separate test was repeated 3 to 4 times.
# (§5) Specific binding CMP value for each sample tube=overall binding CPM value for each sample tube-CPM value of non-specific binding tube. [Inhibition percentage of competitive binding between the test compound and different opioid receptor subtypes (%)=(100%−specific binding (CPM value) of sample tube/specific binding (CPM value) of solvent group×100%)]
# Average was taken for each test drug from three duplicate tubes; each test was repeated two or more times. Data were presented as mean±SE and statistical comparison was made by ANOVA.
# [5] = target: opioid receptor subtype κ (Homo sapiens, UniProt P41145); assay: biochemical; assay type: binding
# Chain of opioid receptor subtype κ (P41145 whole entry): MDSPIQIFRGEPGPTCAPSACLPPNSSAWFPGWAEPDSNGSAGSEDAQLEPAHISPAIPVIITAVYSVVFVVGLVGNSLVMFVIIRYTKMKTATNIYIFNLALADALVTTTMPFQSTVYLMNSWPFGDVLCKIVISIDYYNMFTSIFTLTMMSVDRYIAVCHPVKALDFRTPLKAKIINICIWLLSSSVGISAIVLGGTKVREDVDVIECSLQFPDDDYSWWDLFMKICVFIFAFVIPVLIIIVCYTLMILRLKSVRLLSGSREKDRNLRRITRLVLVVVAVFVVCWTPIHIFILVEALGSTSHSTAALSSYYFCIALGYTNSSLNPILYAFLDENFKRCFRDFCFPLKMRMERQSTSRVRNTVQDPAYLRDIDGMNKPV
# Protocol: as §3, §4, §5
# (§6) Average was taken for each test drug from three duplicate tubes; each test was repeated two or more times.
# [6] = target: opioid receptor subtype μ (Homo sapiens, UniProt P35372); assay: biochemical; assay type: binding
# Chain of opioid receptor subtype μ (P35372 whole entry): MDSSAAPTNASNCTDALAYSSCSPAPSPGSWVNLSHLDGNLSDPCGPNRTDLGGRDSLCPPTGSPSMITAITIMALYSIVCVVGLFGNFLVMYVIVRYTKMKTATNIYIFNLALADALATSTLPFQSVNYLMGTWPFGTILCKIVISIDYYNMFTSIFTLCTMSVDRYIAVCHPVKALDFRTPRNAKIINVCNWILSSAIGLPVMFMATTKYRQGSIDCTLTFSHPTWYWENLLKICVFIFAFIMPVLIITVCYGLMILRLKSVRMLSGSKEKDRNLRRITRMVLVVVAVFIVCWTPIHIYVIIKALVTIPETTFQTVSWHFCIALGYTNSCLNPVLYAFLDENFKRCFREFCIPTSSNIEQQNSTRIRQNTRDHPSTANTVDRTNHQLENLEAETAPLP
# Protocol: as §3, §4, §5, §6
# Kunming mice [7] = assay: Acetic acid-induced abdominal writhing test in mice; assay type: in vivo; settings: 1 h before 0.7% acetic acid i.p.
# Protocol: Acetic Acid-Induced Abdominal Writhing Test in Mice
# Kunming mice, SPF KM mice purchased from […] SLAC LABORATORY ANIMAL CO. LTD and kept in normal environment.
# as §1
# The compounds were dissolved in water for injection at a concentration of 4 mg/ml, 2 mg/ml and 1 mg/ml and were given intragastrically to animals.
# as §2
# Aspirin was used as a positive control and acetic acid writhing test was used.
# 30 mice (half male and half female) weighing 18-23 g were divided into five groups, including negative control group, positive control group, low dose group, medium dose group and high dose group:
# Mice in test group received test drug (10 mg/kg, 20 mg/kg, 40 mg/kg) via intragastric administration. Negative control group received physiological saline (20 ml/kg) via oral administration. Positive control group received aspirin (200 mg/kg) via oral administration. One hour later, each group received 0.7% acetic acid 10 ml/kg intraperitoneally. Five minutes later, the number of writhes was counted within the subsequent 15 min period; inhibition percentage of writhing response in each test group was calculated by the following equation: […]
# in vivo = settings: mouse, po, mice
# Excerpt: Studies of Acute Toxicity of the Compound I-1 and I-20
# For statistics of 1-20, Bliss method was used (“Experimental Design and Statistical Basis for Drug Evaluation”, Changxiao Liu, Ruiyuan Su, first edition, Military Medical Science Press, 1993, 80-90).
compound,measurement,setting,value
"COc1ccccc1N1CCN([C@H](C)[C@H](O)c2ccccc2)CC1 (racemic) [Compound I-20, (1RS,2RS)-1-phenyl-2-(4-(2-methoxyphenyl)piperazinyl)-propan-1-ol]",Ames test result,"[1]; TA97, TA98, TA100, TA102, −S9 and +S9, 5-5000 μg/plate",negative
same,Bacteristatic effect on test strains,[1]; TA98 in −S9 test system and TA97 in +S9 test system,bacteristatic effects
same,Increase in the number of revertant colonies,"[1]; −S9 and +S9, 5, 50, 500, 1000, 5000 μg/plate",None of the tested dose resulted in significant increase
same,Percentage increase in pain threshold,Kunming mice [2]; 10 mg/kg S.c.,63.29 * %
same,Percentage increase in pain threshold,Kunming mice [2]; 20 mg/kg S.c.,80.88 * %
same,Percentage increase in pain threshold,Kunming mice [2]; 40 mg/kg S.c.,186.25 ** %
same,Analgesic effect (in words),[3]; animal model study,obvious analgesic effect
same,Potential for drug dependence,[3]; in vivo,low potential for drug dependence
same,Drug resistance after multiple applications,[3]; multiple applications,No drug resistance is observed
same,Absorption with oral administration (in words),[3]; oral administration,well absorbed; also recorded: good absorption
same,Affinity to opioid receptor subtype δ (in words),[4],no obvious affinity
same,inhibition at 10 µM,"[4]; read-out: Inhibition percentage of competitive binding, δ",0%
same,Affinity to opioid receptor subtype κ (in words),[5],no obvious affinity
same,inhibition at 10 µM,"[5]; test concentration 10^−5 mol/L, [3H]Diprenorphine 0.4 nM, mean±SE, read-out: Inhibition percentage of competitive binding, κ",8.9 ± 0.2%
same,Affinity to opioid receptor subtype μ (in words),[6],no obvious affinity
same,inhibition at 10 µM,"[6]; test concentration 10^−5 mol/L, [3H]Diprenorphine 0.4 nM, mean±SE, read-out: Inhibition percentage of competitive binding, μ",13.4 ± 2.1%
same,Inhibition percentage of writhing response,Kunming mice [7]; 10 mg/kg Ig,46.61%
same,Inhibition percentage of writhing response,Kunming mice [7]; 20 mg/kg Ig,72.03 * %
same,Inhibition percentage of writhing response,Kunming mice [7]; 40 mg/kg Ig,64.41%
same,LD50,in vivo,674 mg/kg
